Earlier results as cited in patent US10172842B2, “Sustained release oral dosage form containing dalfampridine” (PharmaDax Inc., priority 2015, dated 2019).

Assays:
[1] = in the absence of other risk factors
[2] = plasma concentrations lower than 13 ng/mL

Nc1ccncc1 [dalfampridine, 4-aminopyridine]
plasma dalfampridine concentration considered a likely threshold for increased risk of seizure [1]: approximately 100 ng/mL
changes in walking speed in MS patients [2]: low percentage changes in walking speed
